One experiment concerns the target T1, Human PD-L1/PD-1 (Homo sapiens, UniProt Q9NZQ7).
T1 construct: made in house; host or cells: HEK293T
The experiment is described as follows: HTRF PD-1-Ig/PD-L1-His binding assay (human PD-L1). The following applies: cluster symbol; read-out: HTRF IC50 cluster. The essentials: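 Steps: truncated PD-1-Ig and PD-L1-His fusions are incubated in dPBS containing 0.1% (w/v) BSA and 0.05% (v/v) Tween-20. Detection antibodies are then added (Eu cryptate anti-Ig at 1 nM final, APC anti-His at 20 nM final), and time-resolved FRET is measured.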
(In TR-FRET formats the signal depends on donor and acceptor labels being close together.)

The target of experiment [1] is T2, LK35.2-hPD-L1 cells / PE-labeled PD-1-Ig (Homo sapiens, UniProt Q9NZQ7).
T2 construct: expressed in transfected cells; host or cells: LK35.2 mouse B cell line
T2 sequence (Q9NZQ7 19-290): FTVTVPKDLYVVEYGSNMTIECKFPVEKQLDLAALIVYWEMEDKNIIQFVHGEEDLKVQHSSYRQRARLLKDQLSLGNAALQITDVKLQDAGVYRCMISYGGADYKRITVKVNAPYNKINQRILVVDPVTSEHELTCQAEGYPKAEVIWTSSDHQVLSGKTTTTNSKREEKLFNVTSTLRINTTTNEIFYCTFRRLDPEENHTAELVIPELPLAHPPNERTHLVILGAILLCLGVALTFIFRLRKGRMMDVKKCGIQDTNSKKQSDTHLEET
The experiment can be described thus: LK35.2-hPD-L1 cell binding high-content screening assay. It counts as cell-based. The following applies: cell binding assay, cell line not given; cluster symbol; read-out: CBA IC50 cluster. An outline of the steps:
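Binding of PE-conjugated human PD-1-Ig (1 nM final) to human PD-L1 stably expressed on a mouse B-cell line (LK35.2) was measured by high-content imaging after washes. Compound and labeled PD-1-Ig were co-incubated 1 h at 37 °C with cells in RPMI/10% FCS.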

SMILES strings stand for the structures. Positions of bridges follow the written chain, without caps; N, C: chain ends. Non-standard residues stand in square brackets, D forms with d. Residues, ends and D or L forms follow the SMILES beside them. Phe(3,4-(OMe)2) = COc1ccc(C[C@H](N)C(=O)O)cc1OC; Phe(3-CF3) = N[C@@H](Cc1cccc(C(F)(F)F)c1)C(=O)O; Phe(4-CF3) = N[C@@H](Cc1ccc(C(F)(F)F)cc1)C(=O)O; Phe(4-CONH2) = NC(=O)c1ccc(C[C@H](N)C(=O)O)cc1; Phe(4-tBu) = CC(C)(C)c1ccc(C[C@H](N)C(=O)O)cc1; Phe(3-CN) = N#Cc1cccc(C[C@H](N)C(=O)O)c1; Phe(4-CN) = N#Cc1ccc(C[C@H](N)C(=O)O)cc1; Phe(3-Me) = Cc1cccc(C[C@H](N)C(=O)O)c1; Hyp = O=C(O)[C@@H]1C[C@@H](O)CN1; 4Pal = N[C@@H](Cc1ccncc1)C(=O)O; NMeNle = CCCC[C@H](NC)C(=O)O; NMeA = CN[C@@H](C)C(=O)O; Dap = NC[C@H](N)C(=O)O

T1 sequence (Q9NZQ7 with tags, fused parts or gaps): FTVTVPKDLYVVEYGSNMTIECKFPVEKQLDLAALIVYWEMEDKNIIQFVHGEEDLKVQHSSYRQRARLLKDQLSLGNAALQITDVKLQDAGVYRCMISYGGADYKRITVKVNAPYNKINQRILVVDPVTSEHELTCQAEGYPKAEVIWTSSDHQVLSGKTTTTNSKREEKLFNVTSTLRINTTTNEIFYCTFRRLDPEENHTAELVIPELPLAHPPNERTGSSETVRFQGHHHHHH

In the case of `CCCC[C@H]1C(=O)N(C)[C@@H](CCCC)C(=O)N[C@@H](CCCNC(=N)N)C(=O)N[C@H](C(=O)NCC(N)=O)CSCC(=O)N[C@@H](Cc2ccc(O)cc2)C(=O)N(C)[C@@H](C)C(=O)N[C@@H](CC(N)=O)C(=O)N2CCC[C@H]2C(=O)N[C@@H](Cc2ccncc2)C(=O)N[C@@H](CC(C)C)C(=O)N2C[C@H](O)C[C@H]2C(=O)N[C@@H](Cc2c[nH]c3ccccc23)C(=O)N[C@@H](CO)C(=O)N[C@@H](Cc2c[nH]c3ccccc23)C(=O)N1C` [Example 7028] ({CH2CO}-Y[NMeA]NP[4Pal]L[Hyp]WSW[NMeNle][NMeNle]RCG-NH2; thioether N-14), the figures for the IC50 (at Human PD-L1/PD-1; in experiment [1]) were 6.76 to 30.3 nM and 0.158 to 4.71 nM, respectively.
As to `CCCC[C@H]1C(=O)N(C)[C@@H](CCCC)C(=O)N[C@@H](CCCNC(=N)N)C(=O)N[C@H](C(=O)NCC(N)=O)CSCC(=O)N[C@@H](Cc2ccncc2)C(=O)N(C)[C@@H](C)C(=O)N[C@@H](CC(N)=O)C(=O)N2CCC[C@H]2C(=O)N[C@@H](Cc2cnc[nH]2)C(=O)N[C@@H](CC(C)C)C(=O)N2C[C@H](O)C[C@H]2C(=O)N[C@@H](Cc2c[nH]c3ccccc23)C(=O)N[C@@H](CO)C(=O)N[C@@H](Cc2c[nH]c3ccccc23)C(=O)N1C` [Example 7029] ({CH2CO}-[4Pal][NMeA]NPHL[Hyp]WSW[NMeNle][NMeNle]RCG-NH2; thioether N-14), the IC50 at Human PD-L1/PD-1 is over 30.5 nM; in experiment [1] it was 4.78 to 72.9 nM.
For `CCCC[C@H]1C(=O)N(C)[C@@H](CCCC)C(=O)N[C@@H](CCCNC(=N)N)C(=O)N[C@H](C(=O)NCC(N)=O)CSCC(=O)N[C@@H](Cc2ccc(C(F)(F)F)cc2)C(=O)N(C)[C@@H](C)C(=O)N[C@@H](CC(N)=O)C(=O)N2CCC[C@H]2C(=O)N[C@@H](CN)C(=O)N[C@@H](CC(C)C)C(=O)N2C[C@H](O)C[C@H]2C(=O)N[C@@H](Cc2c[nH]c3ccccc23)C(=O)N[C@@H](CO)C(=O)N[C@@H](Cc2c[nH]c3ccccc23)C(=O)N1C` [Example 7030] ({CH2CO}-[Phe(4-CF3)][NMeA]NP[Dap]L[Hyp]WSW[NMeNle][NMeNle]RCG-NH2; thioether N-14), in that order: 0.385 to 6.74 nM and 4.78 to 72.9 nM.
For `CCCC[C@H]1C(=O)N(C)[C@@H](CCCC)C(=O)N[C@@H](Cc2ccncc2)C(=O)N[C@H](C(=O)NCC(N)=O)CSCC(=O)N[C@@H](Cc2ccc(O)cc2)C(=O)N(C)[C@@H](C)C(=O)N[C@@H](CC(N)=O)C(=O)N2CCC[C@H]2C(=O)N[C@@H](Cc2cnc[nH]2)C(=O)N[C@@H](CC(C)C)C(=O)N2C[C@H](O)C[C@H]2C(=O)N[C@@H](Cc2c[nH]c3ccccc23)C(=O)N[C@@H](CO)C(=O)N[C@@H](Cc2c[nH]c3ccccc23)C(=O)N1C` [Example 7031], in that order: 0.385 to 6.74 nM and 4.78 to 72.9 nM.
In the same order, the values of `CCCC[C@H]1C(=O)N(C)[C@@H](CCCC)C(=O)N[C@@H](Cc2ccccn2)C(=O)N[C@H](C(=O)NCC(N)=O)CSCC(=O)N[C@@H](Cc2ccc(O)cc2)C(=O)N(C)[C@@H](C)C(=O)N[C@@H](CC(N)=O)C(=O)N2CCC[C@H]2C(=O)N[C@@H](Cc2cnc[nH]2)C(=O)N[C@@H](CC(C)C)C(=O)N2C[C@H](O)C[C@H]2C(=O)N[C@@H](Cc2c[nH]c3ccccc23)C(=O)N[C@@H](CO)C(=O)N[C@@H](Cc2c[nH]c3ccccc23)C(=O)N1C` [Example 7032] are 0.385 to 6.74 nM and 4.78 to 72.9 nM.
`CCCC[C@H]1C(=O)N(C)[C@@H](CCCC)C(=O)N[C@@H](Cc2cccnc2)C(=O)N[C@H](C(=O)NCC(N)=O)CSCC(=O)N[C@@H](Cc2ccc(O)cc2)C(=O)N(C)[C@@H](C)C(=O)N[C@@H](CC(N)=O)C(=O)N2CCC[C@H]2C(=O)N[C@@H](Cc2cnc[nH]2)C(=O)N[C@@H](CC(C)C)C(=O)N2C[C@H](O)C[C@H]2C(=O)N[C@@H](Cc2c[nH]c3ccccc23)C(=O)N[C@@H](CO)C(=O)N[C@@H](Cc2c[nH]c3ccccc23)C(=O)N1C` [Example 7033]: the values for the IC50 (at Human PD-L1/PD-1; in experiment [1]) were 0.385 to 6.74 nM and 0.158 to 4.71 nM, respectively.
In the same order, the values of `CCCC[C@H]1C(=O)N(C)[C@@H](CCCC)C(=O)N[C@@H](CCCNC(=N)N)C(=O)N[C@H](C(=O)NCC(N)=O)CSCC(=O)N[C@@H](Cc2cccc(C(F)(F)F)c2)C(=O)N(C)[C@@H](C)C(=O)N[C@@H](CC(N)=O)C(=O)N2CCC[C@H]2C(=O)N[C@@H](CN)C(=O)N[C@@H](CC(C)C)C(=O)N2C[C@H](O)C[C@H]2C(=O)N[C@@H](Cc2c[nH]c3ccccc23)C(=O)N[C@@H](CO)C(=O)N[C@@H](Cc2c[nH]c3ccccc23)C(=O)N1C` [Example 7034] ({CH2CO}-[Phe(3-CF3)][NMeA]NP[Dap]L[Hyp]WSW[NMeNle][NMeNle]RCG-NH2; thioether N-14) are 0.385 to 6.74 nM and 4.78 to 72.9 nM.
In the same order, the values of `CCCC[C@H]1C(=O)N(C)[C@@H](CCCC)C(=O)N[C@@H](CCCNC(=N)N)C(=O)N[C@H](C(=O)NCC(N)=O)CSCC(=O)N[C@@H](Cc2cccc(C)c2)C(=O)N(C)[C@@H](C)C(=O)N[C@@H](CC(N)=O)C(=O)N2CCC[C@H]2C(=O)N[C@@H](CN)C(=O)N[C@@H](CC(C)C)C(=O)N2C[C@H](O)C[C@H]2C(=O)N[C@@H](Cc2c[nH]c3ccccc23)C(=O)N[C@@H](CO)C(=O)N[C@@H](Cc2c[nH]c3ccccc23)C(=O)N1C` [Example 7035] ({CH2CO}-[Phe(3-Me)][NMeA]NP[Dap]L[Hyp]WSW[NMeNle][NMeNle]RCG-NH2; thioether N-14) are 0.385 to 6.74 nM and 4.78 to 72.9 nM.
Consider `CCCC[C@H]1C(=O)N(C)[C@@H](CCCC)C(=O)N[C@@H](CCCNC(=N)N)C(=O)N[C@H](C(=O)NCC(N)=O)CSCC(=O)N[C@@H](Cc2ccc(C(C)(C)C)cc2)C(=O)N(C)[C@@H](C)C(=O)N[C@@H](CC(N)=O)C(=O)N2CCC[C@H]2C(=O)N[C@@H](CN)C(=O)N[C@@H](CC(C)C)C(=O)N2C[C@H](O)C[C@H]2C(=O)N[C@@H](Cc2c[nH]c3ccccc23)C(=O)N[C@@H](CO)C(=O)N[C@@H](Cc2c[nH]c3ccccc23)C(=O)N1C` [Example 7036] ({CH2CO}-[Phe(4-tBu)][NMeA]NP[Dap]L[Hyp]WSW[NMeNle][NMeNle]RCG-NH2; thioether N-14), for which the figures for the IC50 (at Human PD-L1/PD-1; in experiment [1]) were 6.76 to 30.3 nM and over 74.3 nM, respectively.
As for `CCCC[C@H]1C(=O)N(C)[C@@H](CCCC)C(=O)N[C@@H](CCCNC(=N)N)C(=O)N[C@H](C(=O)NCC(N)=O)CSCC(=O)N[C@@H](Cc2cccc(C#N)c2)C(=O)N(C)[C@@H](C)C(=O)N[C@@H](CC(N)=O)C(=O)N2CCC[C@H]2C(=O)N[C@@H](CN)C(=O)N[C@@H](CC(C)C)C(=O)N2C[C@H](O)C[C@H]2C(=O)N[C@@H](Cc2c[nH]c3ccccc23)C(=O)N[C@@H](CO)C(=O)N[C@@H](Cc2c[nH]c3ccccc23)C(=O)N1C` [Example 7037] ({CH2CO}-[Phe(3-CN)][NMeA]NP[Dap]L[Hyp]WSW[NMeNle][NMeNle]RCG-NH2; thioether N-14), the values for the concentration for half-maximal inhibition (IC50) (on Human PD-L1/PD-1; in experiment [1]) were 6.76 to 30.3 nM and 4.78 to 72.9 nM, respectively.
For `CCCC[C@H]1C(=O)N(C)[C@@H](CCCC)C(=O)N[C@@H](CCCNC(=N)N)C(=O)N[C@H](C(=O)NCC(N)=O)CSCC(=O)N[C@@H](Cc2ccc(C#N)cc2)C(=O)N(C)[C@@H](C)C(=O)N[C@@H](CC(N)=O)C(=O)N2CCC[C@H]2C(=O)N[C@@H](CN)C(=O)N[C@@H](CC(C)C)C(=O)N2C[C@H](O)C[C@H]2C(=O)N[C@@H](Cc2c[nH]c3ccccc23)C(=O)N[C@@H](CO)C(=O)N[C@@H](Cc2c[nH]c3ccccc23)C(=O)N1C` [Example 7038] ({CH2CO}-[Phe(4-CN)][NMeA]NP[Dap]L[Hyp]WSW[NMeNle][NMeNle]RCG-NH2; thioether N-14), in that order: 0.385 to 6.74 nM and 0.158 to 4.71 nM.
For `CCCC[C@H]1C(=O)N(C)[C@@H](CCCC)C(=O)N[C@@H](CCCNC(=N)N)C(=O)N[C@H](C(=O)NCC(N)=O)CSCC(=O)N[C@@H](Cc2ccc(OC)cc2)C(=O)N(C)[C@@H](C)C(=O)N[C@@H](CC(N)=O)C(=O)N2CCC[C@H]2C(=O)N[C@@H](CN)C(=O)N[C@@H](CC(C)C)C(=O)N2C[C@H](O)C[C@H]2C(=O)N[C@@H](Cc2c[nH]c3ccccc23)C(=O)N[C@@H](CO)C(=O)N[C@@H](Cc2c[nH]c3ccccc23)C(=O)N1C` [Example 7039] ({CH2CO}-Y(Me)[NMeA]NP[Dap]L[Hyp]WSW[NMeNle][NMeNle]RCG-NH2; thioether N-14), in that order: 0.385 to 6.74 nM and 0.158 to 4.71 nM.
For `CCCC[C@H]1C(=O)N(C)[C@@H](CCCC)C(=O)N[C@@H](CCCNC(=N)N)C(=O)N[C@H](C(=O)NCC(N)=O)CSCC(=O)N[C@@H](Cc2ccc(OC)c(OC)c2)C(=O)N(C)[C@@H](C)C(=O)N[C@@H](CC(N)=O)C(=O)N2CCC[C@H]2C(=O)N[C@@H](CN)C(=O)N[C@@H](CC(C)C)C(=O)N2C[C@H](O)C[C@H]2C(=O)N[C@@H](Cc2c[nH]c3ccccc23)C(=O)N[C@@H](CO)C(=O)N[C@@H](Cc2c[nH]c3ccccc23)C(=O)N1C` [Example 7040] ({CH2CO}-[Phe(3,4-(OMe)2)][NMeA]NP[Dap]L[Hyp]WSW[NMeNle][NMeNle]RCG-NH2; thioether N-14), in that order: 0.385 to 6.74 nM and 4.78 to 72.9 nM.
`CCCC[C@H]1C(=O)N(C)[C@@H](CCCC)C(=O)N[C@@H](CCCNC(=N)N)C(=O)N[C@H](C(=O)NCC(N)=O)CSCC(=O)N[C@@H](Cc2ccc(C(N)=O)cc2)C(=O)N(C)[C@@H](C)C(=O)N[C@@H](CC(N)=O)C(=O)N2CCC[C@H]2C(=O)N[C@@H](CN)C(=O)N[C@@H](CC(C)C)C(=O)N2C[C@H](O)C[C@H]2C(=O)N[C@@H](Cc2c[nH]c3ccccc23)C(=O)N[C@@H](CO)C(=O)N[C@@H](Cc2c[nH]c3ccccc23)C(=O)N1C` [Example 7041] ({CH2CO}-[Phe(4-CONH2)][NMeA]NP[Dap]L[Hyp]WSW[NMeNle][NMeNle]RCG-NH2; thioether N-14): the half-inhibitory concentration (IC50) at Human PD-L1/PD-1 is 6.76 to 30.3 nM; in experiment [1], 4.78 to 72.9 nM.

The term IC50 denotes the concentration that inhibits the measured activity by half.

Source of the values: US9850283B2, “Macrocyclic inhibitors of the PD-1/PD-L1 and CD80(B7-1)/PD-L1 protein/protein interactions” (BRISTOL-MYERS SQUIBB COMPANY, priority 2013, dated 2017).
